US20080032924A1 (priority 2004, published 2008)
“Also recorded” adds a separate entry of the source. Where no end group is shown, it is not given here.

Columns and labels:
Micrococcus luteus = format: cell-based
Escherichia coli = format: cell-based
[1] = test system: Fusarium graminearum spores; format: cell-based
Ascochyta rabiei spores = format: cell-based
Aspergillus niger spores = format: cell-based; set-up: key: an N indicates that no activity was observed
[2] = test system: Colletotrichum gloeosporioides spores; format: cell-based; set-up: key: an N indicates that no activity was observed
F. graminearum mycelia = format: cell-based, Fusarium graminearum
[3] = test system: Leptosphaeria maculans spores; format: cell-based
[4] = test system: Fusarium oxysporum spores; format: cell-based
F. oxysporum mycelia = format: cell-based, Fusarium oxysporum
Candida albicans = test: NCCLS M27-A2 microbroth dilution method; format: cell-based; details: synthetic peptide; C. albicans; tested at 0.125-64 μg/ml; read at 24, 48 or 72 hours
Description: (§1) Synthetic Gm-moricinA was also tested against six yeast species using the NCCLS M27-A2 microbroth dilution method at the Women's and Children's Hospital (Adelaide, Australia). The yeasts tested were Candida albicans, C. parapsilosis, C. glabrata, C. krusei, C. tropicalis and Cryptococcus neoformans. The peptide was tested at 0.125-64 μg/ml, with each yeast species tested in duplicate. Trays were read at 24, 48 or 72 hours as appropriate.

C. tropicalis = test: NCCLS M27-A2 microbroth dilution method; format: cell-based; details: synthetic peptide, tested at 0.125-64 μg/ml
Description: as §1

C. krusei = test: NCCLS M27-A2 microbroth dilution method; format: cell-based; details: synthetic peptide, tested at 0.125-64 μg/ml
Description: as §1

C. glabrata = test: NCCLS M27-A2 microbroth dilution method; format: cell-based; details: synthetic peptide, tested at 0.125-64 μg/ml
Description: as §1

Cryptococcus neoformans = test: NCCLS M27-A2 microbroth dilution method; format: cell-based; details: synthetic peptide; C. neoformans; tested at 0.125-64 μg/ml
Description: as §1

C. parapsilosis = test: NCCLS M27-A2 microbroth dilution method; format: cell-based; details: synthetic peptide, tested at 0.125-64 μg/ml
Description: as §1

Row | Substance | lowest concentration at which activity was observed in the zone inhibition assay, Mlu (Micrococcus luteus) [µM] | lowest concentration at which activity was observed in the zone inhibition assay, Eco (Escherichia coli) [µM] | lowest concentration at which activity was observed in the zone inhibition assay, Fgr [1] [µM] | lowest concentration at which activity was observed in the zone inhibition assay, Ara (Ascochyta rabiei spores) [µM] | lowest concentration at which activity was observed in the zone inhibition assay, Ani (Aspergillus niger spores) | lowest concentration at which activity was observed in the zone inhibition assay, Cgl [2] | lowest concentration at which activity was observed in the zone inhibition assay, Fgm (F. graminearum mycelia) [µM] | lowest concentration at which activity was observed in the zone inhibition assay, Lma [3] [µM] | lowest concentration at which activity was observed in the zone inhibition assay, Fox [4] [µM] | lowest concentration at which activity was observed in the zone inhibition assay, Fom (F. oxysporum mycelia) [µM] | activity against F. graminearum [1] | activity against A. rabiei (Ascochyta rabiei spores) | MIC90 (Candida albicans) [µg/mL] | MIC90 (C. tropicalis) [µg/mL] | MIC90 (C. krusei) [µg/mL] | MIC90 (C. glabrata) [µg/mL] | MIC90 (Cryptococcus neoformans) [µg/mL] | MIC90 (C. parapsilosis) [µg/mL] | activity against L. maculans [3]
1 | Bm-moricin: Synthetic B. mori moricin (residues 25 to 66 of SEQ ID NO:16) (AKIPIKAIKTVGKAVGKGLRAINIASTANDVFNFLKPKKRKH; listed as Bombyx mori) [reference compound] | 10 | 10 | 10 | 100 | N | N | 180 | 100 | 100 | 100 | – | – | – | – | – | – | – | – | –
2 | Gm-moricinB: Antifungal moricin-like peptide from Galleria mellonella, SEQ ID NO:5 (GGQIIGKALRGINIASTAHDIISQFKPKKKKNH; listed as Galleria mellonella) | 100 | 100 | 10 | – | N | N | 280 | 100 | 100 | 280 | showed activity | – | – | – | – | – | – | – | –
3 | Gm-moricinC1: Antifungal moricin-like peptide purified from Galleria mellonella hemolymph, SEQ ID NO:48 (KVPIGAIKKGGKIIKKGLGVIGAAGTAHEVYSHVKNRH; listed as Galleria mellonella) | – | – | – | – | – | – | – | – | – | – | had activity | – | – | – | – | – | – | – | –
4 | Gm-moricinC2: Moricin-like peptide from Galleria mellonella, SEQ ID NO:53, synthesised (KVPIGAIKKGGKIIKKGLGVLGAAGTAHEVYNHVRNRQ; listed as Galleria mellonella) | 100 | 10 | 1 | – | N | – | 10 | 10 | – | 10 | – | – | – | – | – | – | – | – | –
5 | KVNVNAIKKGGKAIGKGFKVISAASTAHDVYEHIKNRRH [Gm-moricinA] | 10 | 10 | 1 | 1 | N | N | 100 | 10 | 10 | 10 | had activity; also recorded: showed activity | showed activity | 64.0 | 4.0 | 8.0 | 64.0 | 4.0 | 4.0 | showed activity
